# Measurements from patent publication US8293768B2, “Organic compounds” (Novartis AG, priority 2006, dated 2012).
row,Structure (SMILES),melting point [°C]
1,"Cc1nc(N2CCN(CC3CCCCO3)C2=O)sc1C(=O)NCc1cccnc1 (stereo not shown) [Example 9.36, 4-methyl-2-(2-oxo-3-((tetrahydro-2H-pyran-2-yl)methyl)imidazolidin-1-yl)-N-(pyridin-3-ylmethyl)thiazole-5-carboxamide]",174 to 175
2,"Cc1cnc(CNC(=O)c2sc(N3CCN(CC4CC4)C3=O)nc2C)cn1 [Example 9.34, 2-(3-(cyclopropylmethyl)-2-oxoimidazolidin-1-yl)-4-methyl-N-((5-methylpyrazin-2-yl)methyl)thiazole-5-carboxamide]",161 to 163
3,"Cc1nc(N2CCN(Cc3ccc(OC(F)(F)F)cc3)C2=O)sc1C(=O)NC[C@H](O)c1ccccc1 [Example 9.29, (R)—N-(2-hydroxy-2-phenylethyl)-4-methyl-2-(2-oxo-3-(4-(trifluoromethoxy)benzyl)imidazolidin-1-yl)thiazole-5-carboxamide]",149 to 151
4,"Cc1nc(N2CCN(Cc3cccc(C(=O)O)c3)C2=O)sc1C(=O)NCc1ccccc1 [Example 25, 3-((3-(5-(benzylcarbamoyl)-4-methylthiazol-2-yl)-2-oxoimidazolidin-1-yl)methyl)benzoic acid]",120 to 123
5,"COC(=O)c1ccccc1CN1CCN(c2nc(C)c(C(=O)NCc3ccccc3)s2)C1=O [Example 23.10, methyl 2-((3-(5-(benzylcarbamoyl)-4-methylthiazol-2-yl)-2-oxoimidazolidin-1-yl)methyl)benzoate]",130 to 133
6,"Cc1nc(N2CCN(CCc3c[nH]c4ccccc34)C2=O)sc1C(=O)NCc1cccnc1 [Example 32.20, 2-(3-(2-(1H-indol-3-yl)ethyl)-2-oxoimidazolidin-1-yl)-4-methyl-N-(pyridin-3-ylmethyl)thiazole-5-carboxamide]",198 to 201
7,"CCOC(=O)c1sc(N2CCN(Cc3ccc(Cl)cc3)C2=O)nc1C [Example 10.3, ethyl 2-(3-(4-chlorobenzyl)-2-oxoimidazolidin-1-yl)-4-methylthiazole-5-carboxylate]",117 to 119
8,"Cc1nc(N2CCN(c3ccccc3)C2=O)sc1C(=O)O [Example 6, 4-methyl-2-(2-oxo-3-phenylimidazolidin-1-yl)thiazole-5-carboxylic acid]",286 to 289
9,"CC(=O)c1sc(N2CCN(Cc3ccc(C(F)(F)F)cc3)C2=O)nc1C [Example 5.10, 1-(5-acetyl-4-methylthiazol-2-yl)-3-(4-(trifluoromethyl)benzyl)imidazolidin-2-one]",141 to 142
10,"COC(=O)c1ccc(CN2CCN(c3nc(C)cs3)C2=O)cc1 [Example 5.13, methyl 4-((3-(4-methylthiazol-2-yl)-2-oxoimidazolidin-1-yl)methyl)benzoate]",157 to 158
11,"Cc1nc(N2CCN(CC3CCC3)C2=O)sc1C(=O)NCc1cccnc1 [Example 9.37, 2-(3-(cyclobutylmethyl)-2-oxoimidazolidin-1-yl)-4-methyl-N-(pyridin-3-ylmethyl)thiazole-5-carboxamide]",136 to 137
12,"O=C(NCc1cccnc1)c1cnc(N2CCN(CC3CC3)C2=O)s1 [Example 26, 2-(3-(cyclopropylmethyl)-2-oxoimidazolidin-1-yl)-N-(pyridin-3-ylmethyl)thiazole-5-carboxamide]",190 to 192

# The remaining lines, values ahead:
row,melting point [°C],Structure (SMILES)
1,163 to 165,"Cc1cc(-n2cnn(Cc3ccc(F)cc3)c2=O)sc1C(=O)NCc1ncco1 [Example 31.6, 5-(1-(4-fluorobenzyl)-5-oxo-1H-1,2,4-triazol-4(5H)-yl)-3-methyl-N-(oxazol-2-ylmethyl)thiophene-2-carboxamide]"
2,232 to 234,"Cc1nc(N2CCN(CC(=O)NCc3ccc(F)cc3)C2=O)sc1C(=O)NCc1ccccc1 [Example 15.5, N-benzyl-2-(3-(2-(4-fluorobenzylamino)-2-oxoethyl)-2-oxoimidazolidin-1-yl)-4-methylthiazole-5-carboxamide]"
3,178 to 179,"Cc1nc(N2CCN(Cc3ccccc3)C2=O)sc1C(=O)NCc1cccc(Cl)c1 [Example 9.6, 2-(3-benzyl-2-oxoimidazolidin-1-yl)-N-(3-chlorobenzyl)-4-methylthiazole-5-carboxamide]"
4,176 to 177,"Cc1ncc(CNC(=O)c2sc(-n3cnn(Cc4ccc(F)cc4)c3=O)nc2C)s1 [Example 21.11, 2-(1-(4-fluorobenzyl)-5-oxo-1H-1,2,4-triazol-4(5H)-yl)-4-methyl-N-((2-methylthiazol-5-yl)methyl)thiazole-5-carboxamide]"
5,157 to 158,"Cc1nc(N2CCN(Cc3ccccc3)C2=O)sc1C(=O)NCc1ccc(F)cc1F [Example 9.4, 2-(3-benzyl-2-oxoimidazolidin-1-yl)-N-(2,4-difluorobenzyl)-4-methylthiazole-5-carboxamide]"
6,225 to 226,"Cc1nc(-n2cnn(Cc3ccc(F)cc3)c2=O)sc1C(=O)NCc1cn(C)cn1 [Example 21.14, 2-(1-(4-fluorobenzyl)-5-oxo-1H-1,2,4-triazol-4(5H)-yl)-4-methyl-N-((1-methyl-1H-imidazol-4-yl)methyl)thiazole-5-carboxamide]"
7,192 to 193,"Cc1nc(N2CCN(Cc3ccc(F)cc3)C2=O)sc1C(=O)NCc1ccccc1 [Example 9.21, N-benzyl-2-(3-(4-fluorobenzyl)-2-oxoimidazolidin-1-yl)-4-methylthiazole-5-carboxamide]"
8,185 to 187,"Cc1nc(N2CCN(Cc3csc4ccc(Cl)cc34)C2=O)sc1C(=O)NCc1cccnc1 [Example 32, 2-(3-((5-chlorobenzo[b]thiophen-3-yl)methyl)-2-oxoimidazolidin-1-yl)-4-methyl-N-(pyridin-3-ylmethyl)thiazole-5-carboxamide]"
9,153 to 154,"Cc1nc(N2CCN(Cc3ccccc3)C2=O)sc1C(=O)NCc1cccnc1 [Example 9.7, 2-(3-benzyl-2-oxoimidazolidin-1-yl)-4-methyl-N-(pyridin-3-ylmethyl)thiazole-5-carboxamide]"
10,143 to 145,"Cc1nc(N2CCN(Cc3ccc(C(F)(F)F)o3)C2=O)sc1C(=O)NCc1ccccc1 [Example 23.4, N-benzyl-4-methyl-2-(2-oxo-3-((5-(trifluoromethyl)furan-2-yl)methyl)imidazolidin-1-yl)thiazole-5-carboxamide]"
11,191 to 193,"Cc1cnc(CNC(=O)c2sc(N3CCN(Cc4ccc(F)cc4)C3=O)nc2C)cn1 [Example 32.10, 2-(3-(4-fluorobenzyl)-2-oxoimidazolidin-1-yl)-4-methyl-N-((5-methylpyrazin-2-yl)methyl)thiazole-5-carboxamide]"
12,171 to 172,"Cc1nc(N2C(=O)N(Cc3ccc(C(F)(F)F)cc3)CC2O)sc1C(=O)NCc1cccnc1 (stereo not shown) [Example 16.3, 2-(5-hydroxy-2-oxo-3-(4-(trifluoromethyl)benzyl)imidazolidin-1-yl)-4-methyl-N-(pyridin-3-ylmethyl)thiazole-5-carboxamide]"
13,176 to 178,"Cc1cc(-n2cnn(Cc3ccc(C(F)(F)F)cc3)c2=O)sc1C(=O)NCc1cccnc1 [Example 31.3, 3-methyl-5-(5-oxo-1-(4-(trifluoromethyl)benzyl)-1H-1,2,4-triazol-4(5H)-yl)-N-(pyridin-3-ylmethyl)thiophene-2-carboxamide]"
